Source: patent US20210238197A1, “NOVEL OXOQUINOLIZINE COMPOUNDS FOR THE TREATMENT AND PROPHYLAXIS OF BACTERIAL INFECTION” (Hoffmann-La Roche Inc., priority 2018, published 2021)
≈ marks a conversion by molar mass, not a printed value. Like-named read-outs stand apart in the source and are kept apart here.

Experiments:
S. aureus (ATCC29213) = assay: 50% growth inhibitory concentration (IC50) determination assay, S. aureus; format: cell-based; details: Staphylococcus aureus, ATCC29213; Iso-Sensitest broth, growth by OD 600 nm over 16 h; <0.098 = detection limit
Method: (§1) The in vitro antimicrobial activity of the compounds against S. aureus (ATCC29213), K. pneumoniae (ATCC10031), and A. baumannii (ATCC17978), was determined according to the following procedure: The assay used a 10-points Iso-Sensitest broth medium to measure quantitatively the in vitro activity of the compounds against S. aureus ATCC29213, K. pneumoniae ATCC 10031, and A. baumannii ATCC17978. Stock compounds in DMSO were serially two-fold diluted (range from 50 to 0.097 μM final concentration) in 384 wells microtiter plates and inoculated with 49 μL the bacterial suspension in Iso-Sensitest broth medium to have a final cell concentration of ˜5×10^5 CFU/mL in a final volume/well of 50 μL/well. Microtiter plates were incubated at 35±2° C. Bacterial cell growth was determined with the measurement of optical density at λ=600 nm each 20 minutes over a time course of 16 h.

[1] = system: K. pneumoniae (ATCC10031); assay: 50% growth inhibitory concentration (IC50) determination assay, K. pneumoniae; format: cell-based; details: Klebsiella pneumoniae, ATCC10031; Iso-Sensitest broth, growth by OD 600 nm over 16 h; <0.098 = detection limit
Method: as §1

[2] = system: multiple species and strains; assay: microbe, parasite or virus in culture; set-up: MIC S9 / MIC S7 / MIC S11 / MIC S8 / MIC S10: unit not given beside the values; details: for MIC S9: E. coli ATCC 35218
Method: The MIC of antibacterial compounds against multiple species and strains was determined using the broth microdilution method according to M07-A10 Clinical and Laboratory Standards Institute (CLSI) guidelines (CLSI (2015) Methods for dilution antimicrobial susceptibility tests for bacteria that grow aerobically; Approved Standard, Tenth Edition. CLSI Document M7-A10 (ISBN 1-56238-987-4). Wayne, Pa.: Clinical and Laboratory Standards Institute, 19087, USA.). In short, bacterial strain preparation was performed on D1 and D2. […] 5-10 well-isolated colonies of similar morphology were selected and re-streaked onto fresh agar plates using sterile loops and incubated for 20-24 hr at 35±2° C. Bacterial strains were subcultured two times to ensure fresh inoculums for MIC screening. […] Alternatively, 1-2 colonies were transferred into 500 μL of saline and OD600 was adjusted to ˜0.1 using an OD meter. Bacterial inoculum was diluted by 1:280 for Gram-positive strains and 1:400 for Gram-negative strains into corresponding medium broth (CAMHB, CAMHB+3% lysed horse blood, HTM) (e.g. 35.6 μL of inoculum into 10 mL of CAMHB or 25 μL of inoculum into 10 mL of CAMHB). For compound plate, the compound stock solutions were prepared in 100% DMSO on the day of MIC screening and used immediately. Compound stock concentration=[(highest testing concentration)×100 μL/2 μL] (e.g. if the required highest testing concentration is 64 μg/mL in assay plates, stock concentration=64 μg/mL×100 μL/2 μL=3.2 mg/mL). […] 1 μL of each well was transferred in a new MTP, which served as the test plate by subsequent inoculation. The bacterial suspension prepared above is dispensed at 98 μL/well within 15 minutes after preparation. Negative controls (lack of bacterial cells) and growth control wells (lack of compound) were included in all plates. MTPs were incubated for 18-24 hours at 35±2° C. in ambient air. The MIC was recorded and CFUs were calculated on Day 4. The assay plate was placed on the top of MIC reader, and the magnification mirror was adjusted to read each wells, recording growth status as raw data. Photo images of each assay plates were recorded using Q Count 530 (Spiral Biotech). The MIC value of each compound, expressed as μg/mL, was determined as the lowest concentration required for complete growth inhibition (no visible growth).

A. baumannii (ATCC17978) = assay: 50% growth inhibitory concentration (IC50) determination assay, A. baumannii; format: cell-based; details: Acinetobacter baumannii, ATCC17978; Iso-Sensitest broth, growth by OD 600 nm over 16 h; <0.098 = detection limit
Method: as §1

[3] = Acinetobacter baumannii, ATCC19606, read-out: MIC S1, A. baumannii ATCC 19606
[4] = Acinetobacter baumannii, ATCC51432, read-out: MIC S2, A. baumannii ATCC 51432
[5] = Acinetobacter baumannii, ATCCBAA747, read-out: MIC S3, A. baumannii ATCC BAA-747
[6] = Escherichia coli, ATCC25922, read-out: MIC S11, E. coli ATCC 25922
[7] = Escherichia coli, ATCCBAA2340, read-out: MIC S10, E. coli ATCC BAA-2340
[8] = Klebsiella pneumoniae, ATCC10031, read-out: MIC S4, K. pneumoniae ATCC 10031
[9] = Klebsiella pneumoniae, ATCC700603, read-out: MIC S5, K. pneumoniae ATCC 700603
[10] = Klebsiella pneumoniae, ATCCBAA2146, read-out: MIC S6, K. pneumoniae ATCC BAA-2146
[11] = Pseudomonas aeruginosa, ATCC27853, read-out: MIC S7, P. aeruginosa ATCC 27853
[12] = Pseudomonas aeruginosa, ATCCBAA2113, read-out: MIC S8, P. aeruginosa ATCC BAA-2113

With `CNc1cc(F)c(F)c2c1[nH]c1ncc(-c3ccc4c(C)cc(C(=O)O)c(=O)n4c3)c(N3CC[C@H]4CN(C)C[C@H]43)c12` (relative stereo) [Example 2.04, 7-[4-[cis-5-methyl-2,3,3a,4,6,6a-hexahydropyrrolo[2,3-c]pyrrol-1-yl]-5,6-difluoro-8-(methylamino)-9H-pyrido[2,3-b]indol-3-yl]-1-methyl-4-oxo-quinolizine-3-carboxylic acid] the IC50 (S. aureus (ATCC29213)) was less than 0.098 µM, the IC50 [1] was less than 0.098 µM and the MIC [2, 3] was 0.461 mg/L (≈ 0.825 µM). The MIC [2, 4] was 0.614 mg/L (≈ 1.1 µM), the MIC [2, 5] was 0.922 mg/L (≈ 1.65 µM) and the “MIC S9” value [2] was 0.614. For the same compound, the MIC [2, 6] was 0.173 mg/L (≈ 0.31 µM), the MIC [2, 7] was 0.922 mg/L (≈ 1.65 µM) and the MIC [2, 8] was 0.077 mg/L (≈ 0.138 µM). It also gave an MIC [2, 9] of 4.92 mg/L (≈ 8.8 µM), an MIC [2, 10] of 4.92 mg/L (≈ 8.8 µM) and an MIC [2, 11] of 2.46 mg/L (≈ 4.4 µM). The MIC [2, 12] was 3.69 mg/L (≈ 6.6 µM) and the IC50 (A. baumannii (ATCC17978)) was less than 0.098 µM.
In the case of `CNc1cc(F)c(F)c2c1[nH]c1ncc(-c3ccc4c(C5CC5)cc(C(=O)O)c(=O)n4c3)c(N3CC[C@H]4CN(C)C[C@H]43)c12` (relative stereo) [Example 2.05, 7-[4-[cis-5-methyl-2,3,3a,4,6,6a-hexahydropyrrolo[2,3-c]pyrrol-1-yl]-5,6-difluoro-8-(methylamino)-9H-pyrido[2,3-b]indol-3-yl]-1-cyclopropyl-4-oxo-quinolizine-3-carboxylic acid], the IC50 (S. aureus (ATCC29213)) is reported as less than 0.098 µM, the IC50 [1] is reported as less than 0.098 µM and the IC50 (A. baumannii (ATCC17978)) is reported as less than 0.098 µM.
`CNc1cc(F)c(F)c2c1[nH]c1ncc(-c3ccc4c(Cl)cc(C(=O)O)c(=O)n4c3)c(N3CC[C@H]4CN(C)C[C@H]43)c12` (relative stereo) [Example 2.11, 7-[4-[cis-5-methyl-2,3,3a,4,6,6a-hexahydropyrrolo[2,3-c]pyrrol-1-yl]-5,6-difluoro-8-(methylamino)-9H-pyrido[2,3-b]indol-3-yl]-1-chloro-4-oxo-quinolizine-3-carboxylic acid] was tested, and the IC50 (S. aureus (ATCC29213)) was less than 0.098 µM, the IC50 [1] was less than 0.098 µM and the MIC [2, 3] was 0.27 mg/L (≈ 0.466 µM). For the same compound, the MIC [2, 4] was 0.541 mg/L (≈ 0.934 µM), the MIC [2, 5] was 0.541 mg/L (≈ 0.934 µM) and the “MIC S9” value [2] was 1.081. It also gave an MIC [2, 6] of 0.203 mg/L (≈ 0.351 µM), an MIC [2, 7] of 1.08 mg/L (≈ 1.87 µM) and an MIC [2, 8] of 0.068 mg/L (≈ 0.117 µM). For the same compound, the MIC [2, 9] was 4.33 mg/L (≈ 7.48 µM), the MIC [2, 10] was 4.33 mg/L (≈ 7.48 µM) and the MIC [2, 11] was 2.17 mg/L (≈ 3.74 µM). The MIC [2, 12] was 4.33 mg/L (≈ 7.48 µM) and the IC50 (A. baumannii (ATCC17978)) was less than 0.098 µM.
`CNc1cc(F)c(C#N)c2c1[nH]c1ncc(-c3ccc4ccc(C(=O)O)c(=O)n4c3)c(N3C[C@H]4CCN(C)[C@H]4C3)c12` (single isomer, unassigned) [Example 1.11, 7-[5-cyano-6-fluoro-4-(cis-1-methyl-2,3,3a,4,6,6a-hexahydropyrrolo[3,4-b]pyrrol-5-yl)-8-(methylamino)-9H-pyrido[2,3-b]indol-3-yl]-4-oxo-quinolizine-3-carboxylic acid] was tested, and the IC50 (S. aureus (ATCC29213)) was less than 0.098 µM, the IC50 [1] was less than 0.098 µM and the MIC [2, 3] was 0.26 mg/L (≈ 0.471 µM). The MIC [2, 4] was 0.26 mg/L (≈ 0.471 µM), the MIC [2, 5] was 0.26 mg/L (≈ 0.471 µM) and the “MIC S11” value ([2]; E. coli ATCC 25922) was 0.097. The “MIC S9” value [2] was 0.260, the MIC [2, 7] was 0.26 mg/L (≈ 0.471 µM) and the MIC [2, 8] was 0.033 mg/L (≈ 0.0598 µM). The MIC [2, 9] was 1.04 mg/L (≈ 1.88 µM), the MIC [2, 10] was 1.04 mg/L (≈ 1.88 µM) and the “MIC S7” value ([2]; P. aeruginosa ATCC 27853) was 1.038. It also gave an MIC [2, 12] of 2.08 mg/L (≈ 3.77 µM) and an IC50 (A. baumannii (ATCC17978)) of less than 0.098 µM.
For `CNc1cc(F)c(F)c2c1[nH]c1ncc(-c3ccc4ccc(C(=O)O)c(=O)n4c3)c(N3CC4C(N(C)C)CO[C@@H]4C3)c12` (stereo partly drawn) [Example 1.06, 7-[4-[cis-3-(dimethylamino)-2,3,3a,4,6,6a-hexahydrofuro[2,3-c]pyrrol-5-yl]-5,6-difluoro-8-(methylamino)-9H-pyrido[2,3-b]indol-3-yl]-4-oxo-quinolizine-3-carboxylic acid], the IC50 (S. aureus (ATCC29213)) was 0.137 µM, the IC50 [1] was less than 0.098 µM and the IC50 (A. baumannii (ATCC17978)) was less than 0.098 µM.
